Three molecules from ChEMBL document CHEMBL1137657, “Identification of 16S rRNA methylase-producing Acinetobacter baumannii clinical strains in North America” (2007) can be followed below.

The term MIC denotes the smallest concentration in the dilution series that meets the test's criterion for growth inhibition.

Active and inactive are the calls of the source.

Test [1] relates to Escherichia coli. As to the kind of experiment: Antibacterial activity against Escherichia coli DH10B expressing Acinetobacter baumannii isolate B 16S rRNA methylase armA gene. The conditions noted are these: K-12 substr. DH10B. The format is functional.
Test [2] deals with Acinetobacter baumannii. Nature of the test: Antibacterial activity against Acinetobacter baumannii isolate D expressing 16S rRNA methylase armA gene. The format is functional.
For test [3], the system named is Acinetobacter baumannii. As to the kind of experiment: Antibacterial activity against Acinetobacter baumannii isolate E expressing 16S rRNA methylase armA gene. The format is functional.
The subject of test [4] is Acinetobacter baumannii. Nature of the test: Antibacterial activity against armA knockout Acinetobacter baumannii 231. The class given is functional, organism-based.
The subject of test [5] is Escherichia coli. As to the kind of experiment: Antimicrobial activity against azide-resistant Escherichia coli J53 transconjugant with 16S rRNA methylase armA gene expressing Acinetobacter baumannii isolate B. The format is functional, organism-based.
The test system of test [6] is Acinetobacter baumannii. As to the kind of experiment: Antimicrobial activity against colistin-resistant Acinetobacter baumannii 213 transconjugant with 16S rRNA methylase armA gene expressing Acinetobacter baumannii isolate D. The format is functional, organism-based.
Test [7] concerns Escherichia coli. As to the kind of experiment: Antimicrobial activity against azide-resistant Escherichia coli J53 transconjugant with 16S rRNA methylase armA gene expressing Acinetobacter baumannii isolate C. The class given is functional, organism-based.
The subject of test [8] is Escherichia coli. As to the kind of experiment: Antimicrobial activity against azide-resistant Escherichia coli J53 transconjugant with 16S rRNA methylase armA gene expressing Acinetobacter baumannii isolate E. The class given is functional, organism-based.
For test [9], the system named is Escherichia coli. As to the kind of experiment: Antimicrobial activity against azide-resistant Escherichia coli J53 transconjugant with 16S rRNA methylase armA gene expressing Acinetobacter baumannii isolate A. The class given is functional, organism-based.
The subject of test [10] is Acinetobacter baumannii. Nature of the test: Antibacterial activity against Acinetobacter baumannii isolate B expressing 16S rRNA methylase armA gene. The format is functional.
Test [11] deals with Acinetobacter baumannii. As to the kind of experiment: Antimicrobial activity against colistin-resistant Acinetobacter baumannii 213 transconjugant with 16S rRNA methylase armA gene expressing Acinetobacter baumannii isolate E. The format is functional, organism-based.
The test system of test [12] is Acinetobacter baumannii. As to the kind of experiment: Antimicrobial activity against colistin-resistant Acinetobacter baumannii 213 transconjugant with 16S rRNA methylase armA gene expressing Acinetobacter baumannii isolate C. The format is functional, organism-based.
Test [13] deals with Acinetobacter baumannii. Nature of the test: Antimicrobial activity against colistin-resistant Acinetobacter baumannii 213 transconjugant with 16S rRNA methylase armA gene expressing Acinetobacter baumannii isolate B. The format is functional, organism-based.
Test [14] has as its system Escherichia coli. Nature of the test: Antimicrobial activity against azide-resistant Escherichia coli J53 transconjugant with 16S rRNA methylase armA gene expressing Acinetobacter baumannii isolate D. The class given is functional, organism-based.
Test [15] relates to Acinetobacter baumannii. As to the kind of experiment: Antibacterial activity against Acinetobacter baumannii isolate A expressing 16S rRNA methylase armA gene. The class given is functional.
In test [16] the test system is Acinetobacter baumannii. As to the kind of experiment: Antibacterial activity against Acinetobacter baumannii isolate C expressing 16S rRNA methylase armA gene. The format is functional.
The test system of test [17] is Acinetobacter baumannii. Nature of the test: Antimicrobial activity against colistin-resistant Acinetobacter baumannii 213 transconjugant with 16S rRNA methylase armA gene expressing Acinetobacter baumannii isolate A. The format is functional, organism-based.

`NCC[C@H](O)C(=O)N[C@@H]1C[C@H](N)[C@@H](O[C@H]2O[C@H](CN)[C@@H](O)[C@H](O)[C@H]2O)[C@H](O)[C@H]1O[C@H]1O[C@H](CO)[C@@H](O)[C@H](N)[C@H]1O` [AMIKACIN]: the MIC was ≥ 256 µg/mL against Escherichia coli [1]; > 512 µg/mL against Acinetobacter baumannii [2]; > 512 µg/mL with Acinetobacter baumannii [3]; > 512 µg/mL against Acinetobacter baumannii [10]; > 512 µg/mL with Acinetobacter baumannii [15]; > 512 µg/mL in the test with Acinetobacter baumannii [16]. In addition, the outcome in the test on Acinetobacter baumannii [4], in the test with Escherichia coli [5], in the test on Acinetobacter baumannii [6], with Escherichia coli [7], with Escherichia coli [8] and in the test with Escherichia coli [9] was Active. In addition, the outcome in the test with Acinetobacter baumannii [11], in the test with Acinetobacter baumannii [12], in the test with Acinetobacter baumannii [13], in the test with Escherichia coli [14] and in the test with Acinetobacter baumannii [17] was Active.
As for `NC[C@H]1O[C@H](O[C@H]2[C@H](O)[C@@H](O[C@H]3O[C@H](CO)[C@@H](O)[C@H](N)[C@H]3O)[C@H](N)C[C@@H]2N)[C@H](N)C[C@@H]1O` [TOBRAMYCIN], the MIC with Escherichia coli [1] is ≥ 256 µg/mL; with Acinetobacter baumannii [2] it was > 512 µg/mL; in the test on Acinetobacter baumannii [3], > 512 µg/mL; against Acinetobacter baumannii [10], > 512 µg/mL; in the test on Acinetobacter baumannii [15], > 512 µg/mL; in the test with Acinetobacter baumannii [16] it was > 512 µg/mL.
Take GENTAMICIN: the MIC is > 256 µg/mL against Escherichia coli [1]; > 512 µg/mL in the test with Acinetobacter baumannii [2]; > 512 µg/mL in the test on Acinetobacter baumannii [3]; > 512 µg/mL against Acinetobacter baumannii [10]; > 512 µg/mL in the test on Acinetobacter baumannii [15]; > 512 µg/mL in the test with Acinetobacter baumannii [16].
